Assay results reported in patent publication US12433858B2, “Substituted cycloalkanes for managing nephrogenic diabetes insipidus” (NephroDI Therapeutics, Inc., priority 2017, dated 2025).
Entries after “also recorded” stand apart in the source; their conditions may differ.

Key:
[1] = Hypoglycemia evaluation on chronic dosing in exercised tolvaptan-treated NDI rats (blood glucose); type: in vivo, rat; conditions: 25 mg/kg/day, daily for 5 days
Description: (§1) An experiment was designed to approximate hypoglycemia in the tolvaptan-treated rat NDI model to look for hypoglycemia. A timeline for the experiment is illustrated in FIG. 4A. The rats were given tolvaptan beginning Day negative 3. On Day zero half of the rats started to receive 25 mg/kg/day of NDI-5033. After observing an improvement in the urine concentration, the animals were exercised daily for 5 days. Food was removed from the animals and NDI-5033 was given, then 4 hours later rats were subjected to 30 minutes of treadmill running. Blood glucose measurements were taken before and after the bout of exercise. Food was restored. The process was repeated daily for 5 days. The average urine osmolality and urine volumes in the NDI rats not receiving NDI-5033 (control) or receiving 25 mg/kg/day NDI-5033 is shown in FIG. 4B. Urine osmolality was increased (p<0.05) and urine volume decreased (p<0.07) upon drug treatment. […] For each day, patterned bars are from rats not receiving NDI-5033. The leftmost bar (diagonal) is before and to the right is after exercise. The next two bars show blood glucose values for rats receiving NDI-5033. Solid black is before and solid white is after exercise.

[2] = tested on: Tolvaptan induced NDI rats; experiment: Tolvaptan-induced NDI rat model, urine concentration; type: in vivo
Description: Rats were given tolvaptan to induce NDI. Tolvaptan binds to and blocks the vasopressin type 2 receptor (V2R) and renders the animals insensitive to vasopressin-induced antidiuresis. The efficacy of three compounds of Formula I were evaluated. Each rat was gavage fed with 10 mg/kg/day of tolvaptan in the carrier solution (1% hydroxypropylmethyl cellulose in water) for 3 days to prepare the NDI model. The drugs were added to the gavage feeding solution and delivered daily for 4 days (NDI-5001, 200 mg/kg/day; NDI-5033 or NDI-5037, 50 mg/kg/day). Control rats were sham gavage fed.
(§2) NDI-5033 was tested to determine an initial time course and sustainability of the anti-diuretic response. Rats were given tolvaptan to initiate NDI. They were then fed 100 mg/kg/day with NDI-5033 for 3 days (FIG. 2A). […] To ensure that the observed efficacy is not compromised by potential binding of NDI-5033 to V2R, NDI-5033 was given to mice in which the V2R was genetically knocked out yielding a genetic model of NDI (FIG. 2B). Control mice received no drug. NDI-5033 was given by injection to the mice and 24-hour urine collected and assessed for urine osmolality. NDI-5033 produced a 50% improvement in urine concentration.
(§3) Tolvaptan induced NDI rats were prepared and fed with doses of NDI-5033 from 0 to 100 mg/kg/day in a series of experiments. […] To confirm the effectiveness of the 25 mg/kg/day dose, NDI-5033 was given to V2R knock-out NDI mice and 24-hour urines were assessed for urine osmolality (FIG. 3B). The osmolality was increased in NDI mice after treatment with 25 mg/kg/day of NDI-5033.
as §1

V2R knock-out NDI mice = experiment: V2R knock-out mouse genetic model of NDI, 24-hour urine osmolality; type: in vivo
Description: as §2, §3

[3] = food removed, 30 minutes treadmill 4 hours after dose
[4] = 100 mg/kg/day for 3 days, tolvaptan NDI rats

| blood glucose before versus after exercise [1, 3] | blood glucose relative to normal range for rats [1, 3] | Compound | hypoglycemia ([1]; exercised NDI rats) | average urine osmolality (in words) ([2]; 25 mg/kg/day versus control NDI rats, exercise study, p<0.05, FIG. 4B) | average urine volume (in words) ([2]; 25 mg/kg/day versus control NDI rats, exercise study, p<0.07, FIG. 4B) | duration for which anti-diuretic response is sustained [2, 4] [days] | time to anti-diuretic effect after initial treatment [2, 4] [h] | urine concentrating ability (urine osmolality) as percent of untreated, fully concentrating rats (basal, set to 100%) ([2]; NDI-5033 50 mg/kg/day by gavage daily for 4 days, after tolvaptan 10 mg/kg/day for 3 days) | dose showing statistically significant improvements in urine concentrations ([2]; dose response 0 to 100 mg/kg/day, FIG. 3A) [mg/kg/day] | urine osmolality (in words) ([2]; dosed with NDI inducing agent tolvaptan, FIG. 2A, 100 mg/kg/day for 3 days) | efficacy / urine concentrating ability (in words) ([2]; gavage daily for 4 days, NDI-5001 200 mg/kg/day, NDI-5033 or NDI-5037 50 mg/kg/day, tolvaptan NDI rats) | urine osmolality (in words) (V2R knock-out NDI mice; 25 mg/kg/day, 24-hour urines, FIG. 3B) | improvement in urine concentration (V2R knock-out NDI mice; given by injection, 24-hour urine, versus control mice receiving no drug) [%] | urine osmolality as percent of the normal animal ([2]; tolvaptan 10 mg/kg/day by gavage for 3 days, NDI induction) |
| --- | --- | --- | --- | --- | --- | --- | --- | --- | --- | --- | --- | --- | --- | --- |
| no statistical difference | within the normal range | NC(=O)C1(CCCCCCCCCCCCC2(C(N)=O)CC2)CC1 [NDI-5033, 1,1′-(dodecane-1,12-diyl)bis(cyclopropane-1-carboxamide)] | no evidence of hypoglycemia; also recorded: do not experience hypoglycemia | increased | decreased | 3 | ≤ 24 | 75 % of normal | ≥ 10 | increases urine osmolality | improve urine concentrating ability | increased | 50 | – |
| – | – | Cc1ccccc1C(=O)Nc1ccc(C(=O)N2CCCC(O)c3cc(Cl)ccc32)c(C)c1 (centres unmarked) [tolvaptan, reference compound] | – | – | – | – | – | – | – | – | – | – | – | 10 % of the normal animal |
